In US6528049B2, “Bisexual attractants, aggregants and arrestants for adults and larvae of codling moth and other species of lepidoptera” (Trece, Inc., priority 1999, dated 2003):
Several values for one entry are separate records, joined by “and”; a condition that tells them apart may be missing. Identical values can stand only once.

Columns and labels:
Type in all cases: in vivo, Cydia pomonella
codling moth [1] = assay: Field study of individual alcohols, aldehydes and esters; details: individual compounds typically of purity 90-98%
Description: Attractive activity of these compounds for male and female codling moth was compared to purified ethyl (2E,4Z)-2,4-decadienoate.
When the cumulative evaluation of all studied compounds and/or blends containing aldehyde, alcohol, ester and terpene compounds was made, the following results clearly confirmed the findings seen in Table 3.

codling moth [2] = assay: Inherent attractancy field test of HPV blends in baited sticky traps in walnut orchard
Protocol: The blends listed in Table 2 were then field tested in walnut orchards for their attractancy to male and female codling moths, and also for enhancement with synthetic codling moth pheromone and other additives identified above. Their total capture (both males and females), and their individual male and female capture were determined and results obtained, were compared to insect capture obtained with purified individual ester, compound #25 namely ethyl (2E,4Z)-2,4-decadienoate, and to the codling moth male sex pheromone compound #26 in Table 3.
Individual blends containing representative aldehyde, alcohol, ester, monoterpene or sesquiterpene blends were provided in the traps in 10 mg/white septa.
Individual host-plant volatile (HPV) blends identified by the #1-23 in Table 3 were tested for codling moth attractancy in a walnut orchard, and the results were compared to the isolated purified ethyl (2E,4Z)-2,4-decadienoate (#25), to pheromone (#26) and to solvent controls (#24).
Twenty-five HPV blends and eight individual compounds were field tested. One synthetic blend, “ester blend #10,” elicited excellent codling moth attraction. In field tests, the other tested blends (see Table 3) and compounds captured no moths over a three month period, except for an “apple-skin surface extract” (Golden Delicious, ether solvent) (Σ=3 codling moth captured, 1♂: 2♀♀) and the individual compound, (E,E)-α-farnesene (Σ=1♂ codling moth captured). The field tests are presented in Table 3 and show attraction specificity for HPV ester blend #10.
(§1) Sticky traps (ICP and IIB traps, Trécé, Inc. Salinas, Calif.) were baited with either extracts, blends of HPVs, or individual HPVs (>95% purity) that evaporated from impregnated rubber septa. HPV blends, or individual HPV compounds, were diluted in hexane and pipetted onto rubber septa at approximate doses of 10 mg/septum. A single treatment septum was placed in each sticky wing-trap, and hung approximately six meters high in the outer walnut canopy. Trap liners and treatment HPV septa were replaced every 10-14 days and pheromone septa every month and tests were conducted throughout two summers.
(§2) A replicated series of different HPV treatment traps, control “blank” (unbaited) trap, and a commercial pheromone-baited trap (Trécé, Inc.) were distributed 5 trees apart throughout two distant Hartley walnut orchards and validated in 12 walnut orchards. The orchards were distinct, with one using three summer insecticide sprays and the other had no spraying. Thus, these test orchards had low vs. moderate relative populations of codling moths. Significant effects on the gender of codling moths captured were judged by paired tests, either T-test or a nonparametric test.

codling moth [3] = assay: Trap capture with purified (2E,4E) and (2E,4Z) 2,4-decadienoic acid esters; details: 1 mg dose/gray septum; four orchards; means of 21 trap checks
Protocol: In this study, test compounds were highly purified synthetic samples. The purities of the compounds are expressed as percentages. Individual traps were baited with 1 mg dose/gray septum; five replicate blocks in four orchards; means of 21 total trap checks.

codling moth [4] = assay: Trap capture with proportional mixes of ethyl 2,4-decadienoate isomers; details: 1 mg dose/gray septum
Protocol: Additionally, studies were performed to determine the attraction of codling moth to proportional mixes of (2E,4Z) and (2E,4E) isomers of ethyl 2,4-decadienoate and highly purified samples of each. Traps were baited with 1 mg dose/gray septum.

male codling moth = assay: Pheromone preference paired-trap test: pheromone alone vs pheromone + HPV; details: Table 8, trap paired with the HPV of the same table line
Description: Interaction of synthetic apple and pear odor blends, described above in Table 2, and their effect on the attractancy of synthetic pheromone to codling moth was also studied. For that purpose, series of paired-traps containing pheromone alone or pheromone in combination with synthetic host plant volatile blends were placed in walnut orchards.
Interaction of individual synthetic host plant volatiles or blends on the attractiveness of synthetic male pheromone to male codling moth administered in paired traps with pheromone alone or with pheromone and attractant 10 mg/red septum was also studied.
(§3) Pheromone traps (sticky wing traps, Trécé, Inc.,) were hung as pairs: a pheromone only baited-trap vs. a pheromone+HPV blend-baited trap. The two traps of a test pair were attached in close competitive proximity (120 cm apart) on a common hanger bar (PVC pipe). The paired-trap bars were hung 5-6 meters high on the outer canopies of trees. A single pair-trap was hung per tree and different replicate test trees were separated by five rows in a matrix through the orchard. Each pheromone trap was baited with ½ of a commercial pheromone-impregnated rubber septum (Trécé, Inc.). Septa were sectioned by a razor blade. The HPV blends evaporated from their own separate impregnated rubber septa containing 10 mg diluted in hexane/septum).
(§4) Tests were conducted in a Harley English walnut orchard. Tests spanned the entire two year seasons April-October with traps checked, males sexed, counted and removed every 2-7 days. Significant effect on pheromone trap capture were judged by paired tests either T-test or a nonparametric test.

codling moth [5] = assay: Paired-trap test of pheromone alone vs pheromone + ester blend #10; details: for Total Moths Caught: / Mean ± SEM capture of codling moths: Table 11; for Mean ± SEM capture of codling moths: paired traps, Hartley walnut orchard
Description: The ability of the HPV ester blend #10 to influence the pheromone attractancy/preference of codling moth was resolved using paired-traps, one trap with a pheromone septum alone and the other trap with a pheromone septum and an ester blend #10 septum. […] Results are seen in Tables 10 and 11, and FIG. 3.
Table 10 illustrates interaction of pheromone with HPV ester blend #10 on codling moth attraction, when tested in a conventional low-population Hartley walnut orchard. There were 13 traps and 18 trap check dates.
as §3, §4

codling moth [6] = assay: Septa colour and loading dose trap study; details: Ph-L2 pheromone
Protocol: Since there have been differences observed between traps containing gray, white or red septa, a study was performed to determine the significance of the specific septa and their effect on the increase or decrease of attractancy. […]

codling moth [7] = assay: Ester blend #10-baited vs pheromone-baited sticky traps; details: Table 13; baited sticky trap
Description: Attraction of female and male codling moths to ester blend #10 in baited sticky trap is seen in FIG. 1. […] Results are numerically expressed in Table 13.
Table 13 compares two orchard treatments with ester blend #10 and pheromone-only baited sticky traps. […] In the pheromone baited traps, only male insects were captured.
The female flight pattern depicted by capture in ester blend #10-baited sticky traps was related to the male flight pattern to pheromone-baited traps over the 3 month test period. Results are seen in FIG. 2, which is a comparative graph of codling moth flight patterns delineated by males captured in pheromone traps versus both sexes captured in ester blend #10 traps. […] The male pheromone curve rises sooner and lasts longer per flight, while the female ester blend #10 curve drops off sooner. These temporal-phase shifts of the flight curves represent the earlier and longer emergence of male codling moth for each flight period.
as §1, §2

codling moth [8] = assay: Rapid-kill liquid traps baited with ester blend #10 or pheromone
Protocol: Experimental challenge to this question was to use a novel, funnel-liquid-jar-trap (“rapid-kill liquid traps”) to rapidly kill (drown) attracted moths. […] Again, it was the females who were predominantly captured (sex ratio: 1♂:3.0♀♀ insect attracted).
Again, females were preferentially attracted (3:1 ratio) to ester blend #10 rapid kill liquid traps, while only males were seen to be attracted to the pheromone traps.
A second series of inherent attractancy tests were conducted on the most-active HPV blend (ester blend #10) using a novel, funnel-liquid (50:50 water and antifreeze) jar-trap adapted from a prototype of Trece, Inc., to rapidly kill (drown) attracted moths (“rapid-kill liquid traps”). This study comprised of a pheromone standard trap, a control blank trap and seven replicated HPV ester blend #10-baited traps. The rapid-kill traps were hung six meters high on trees distributed five rows apart in a Hartley walnut orchard with a moderate codling moth population. HPV ester blend #10 was loaded on a rubber septa at approximate doses of 10 mg/septum and were replaced every 10 days, while the commercial pheromone septum was replaced monthly.

codling moth [9] = assay: Sticky traps baited with the single compound or pheromone; details: Table 15, sticky trap
Description: FIG. 5 illustrates mean attraction of female and male codling moths to sticky traps baited with a single host plant volatile, ethyl (2E,4Z)-2,4-decadienoate. The attraction was followed over a two month period.

[10] = walnut orchard, blends 10 mg/white septa, ethyl (2E,4Z)-2,4-decadienoate 5 mg
[11] = Gray Septa, High (high population conventional orchard)
[12] = Gray Septa, Low (low population organic orchard)
[13] = Red Septa, High (high population conventional orchard)
[14] = Red Septa, Low (low population organic orchard)
[15] = 3 traps, 43 trap checks (pheromone: 1 trap, 19 trap checks)

With `CCCCCC=CC=CCO` [(2,4)-2,4-decadien-1-ol] the “attractancy to male and female codling moth (in words)” value (shortened to “attractancy”) (codling moth [1]) was “very low male attractancy”.
`CCCCCCC/C=C/COC(C)=O` [(E)-2-decen-1-yl acetate] was tested, and the “attractancy” value (codling moth [1]) was “most active”.
`C=C/C(C)=C/C/C=C(\C)CCC=C(C)C` [(E,E)-α-farnesene] was tested, and the “Σ codling moth captured” value (codling moth [2]; field tests over a three month period) was 1.
With `CCCCC/C=C/C=C/C(=O)OCC` [Ethyl (2E,4E)-2,4-Decadienoate] the “MALE CM Captured: ♂♂/trap/night ± SEM” value (codling moth [3]) was 0.24 ± 0.06 ♂♂/trap/night, the “Total CM Captured: CM/trap/night ± SEM” value (codling moth [3]) was 0.77 ± 0.20 CM/trap/night and the “Female CM Captured ♀♀/trap/night ± SEM” value (codling moth [4]) was 0.05 ± 0.05 ♀♀/trap/night. For the same compound, the “MALE CM Captured: ♂♂/trap/night ± SEM” value (codling moth [4]) was 0.19 ± 0.05 ♂♂/trap/night and the “Total CM Captured: CM/trap ± SEM” value (codling moth [4]) was 0.24 ± 0.10 CM/trap.
With `CCCCC/C=C\C=C\C(=O)OC` [Methyl (2E,4Z)-2,4-Decadienoate] the “FEMALE CM Captured: ♂♂/trap/night ± SEM” value (codling moth [3]) was 0.41 ± 0.14 ♀♀/trap/night, the “MALE CM Captured: ♂♂/trap/night ± SEM” value (codling moth [3]) was 0.12 ± 0.07 ♂♂/trap/night and the “Total CM Captured: CM/trap/night ± SEM” value (codling moth [3]) was 0.54 ± 0.19 CM/trap/night. For the same compound, the “attractancy” value (codling moth [1]) was “most active”.
`C/C=C/C=C/CCCCCCCO` [Pheromone, (E,E)-8,10-dodecadienol, reference compound] was tested, and the “FEMALE CM Captured with HPV; ♀♀/trap night ± SEM” value (codling moth [2]; [10]) was 0.0 ♀♀/trap night, the “MALE CM Captured with HPV; ♂♂/trap/night ± SEM” value (codling moth [2]; [10]) was 3.15 ± 0.98 ♂♂/trap/night and the “Total CM Captured with HPV: (CM/trap/night ± SEM)” value (codling moth [2]; [10]) was 3.15 ± 0.98 CM/trap/night. For the same compound, the “MALE CM Captured: ♂♂/trap/night ± SEM” value (codling moth [3]) was 7.13 ± 1.94 ♂♂/trap/night, the “Total CM Captured: CM/trap/night ± SEM” value (codling moth [3]) was 7.13 ± 1.94 CM/trap/night and the “Male CM Captured, Pheromone Alone Trap: ± SEM” value (male codling moth; Orchard #1) was 0.73 ± 0.15 ♂♂/trap/night and 1.09 ± 0.27 ♂♂/trap/night and 1.04 ± 0.21 ♂♂/trap/night and 0.79 ± 0.15 ♂♂/trap/night and 1.24 ± 0.52 ♂♂/trap/night and 0.72 ± 0.13 ♂♂/trap/night. The “Male CM Captured, Pheromone Alone Trap: ± SEM” value (male codling moth; Orchard #3) was 2.41 ± 0.42 ♂♂/trap/night and 2.98 ± 0.49 ♂♂/trap/night and 2.33 ± 0.41 ♂♂/trap/night and 4.40 ± 0.87 ♂♂/trap/night and 2.60 ± 0.38 ♂♂/trap/night and 3.82 ± 0.42 ♂♂/trap/night, the “Total Moths Caught: Male” value (codling moth [5]; Table 10, conventional low-population Hartley walnut orchard) was 46 and the “Male capture, Mean ± SEM” value (codling moth [5]; Table 10, conventional low-population Hartley walnut orchard, 13 traps, 18 trap check dates) was 0.55 Moths/Night. The “Total Moths Caught:” value (codling moth [5]; Test 1) was 212, the “Mean ± SEM capture of codling moths” value (codling moth [5]; Test 1 (2 Reps)) was 0.74 ± 0.13 Moths/Trap/Night and the “Total Moths Caught:” value (codling moth [5]; Test 2) was 745. The “Mean ± SEM capture of codling moths” value (codling moth [5]; Test 2 (2 Reps, 50 trap checks)) was 2.54 ± 0.43 Moths/Trap/Night, the “♂♂ ± SEM (Ph-L2 pheromone)” value (codling moth [6]; [11]) was 0.08 ± 0.05 and the “♂♂ ± SEM (under Ph-L2 pheromone)” value (codling moth [6]; [11]) was 0.05 ± 0.05. The “♂♂ ± SEM (Ph-L2 pheromone)” value (codling moth [6]; [12]) was 0, the “♂♂ ± SEM (under Ph-L2 pheromone)” value (codling moth [6]; [12]) was 1.28 ± 0.61 and the “♂♂ ± SEM (Ph-L2 pheromone)” value (codling moth [6]; [13]) was 0.06 ± 0.06. The “♂♂ ± SEM (under Ph-L2 pheromone)” value (codling moth [6]; [13]) was 9.98 ± 2.94, the “♂♂ ± SEM (Ph-L2 pheromone)” value (codling moth [6]; [14]) was 0 and the “♂♂ ± SEM (under Ph-L2 pheromone)” value (codling moth [6]; [14]) was 0.80 ± 0.31. The “Female Capture: Mean ± SEM” value (codling moth [7]) was 0 Moths/Trap/Night, the “Female Capture: Sum:” value (codling moth [7]) was 0 Moths/Trap/Night and the “Male Capture: Mean ± SEM” value (codling moth [7]) was 4.96 ± 1.04 Moths/Trap/Night. For the same compound, the “Male Capture: Sum:” value (codling moth [7]) was 94.3 Moths/Trap/Night, the “Female Capture: Sum:” value (codling moth [8]; Table 14) was 0 Moths/Trap/Night and the “Male Capture: Sum:” value (codling moth [8]; Table 14) was 18.3 Moths/Trap/Night. The “Female Capture: Mean ± SEM” value (codling moth [8]; Table 14, one month) was 0 Moths/Trap/Night, the “Male Capture: Mean ± SEM” value (codling moth [8]; Table 14, one month) was 3.04 ± 0.08 Moths/Trap/Night and the “Female Capture: Sum:” value (codling moth [9]) was 0 Moths/Trap/Night. The “Male Capture: Sum:” value (codling moth [9]) was 94.3 Moths/Trap/Night, the “Female Capture: Mean ± SEM” value (codling moth [9]; [15]) was 0 Moths/Trap/Night and the “Male Capture: Mean ± SEM” value (codling moth [9]; [15]) was 4.96 ± 1.04 Moths/Trap/Night.
`CCCCCCC/C=C/C(=O)OCC` [ethyl (2E)-2-decenoate] was tested, and the “attractancy” value (codling moth [1]) was “most active”.
In the case of `CCCCC/C=C\C=C\C(=O)OCCC` [n-Propyl (2E,4Z)-2,4-Decadienoate], the “FEMALE CM Captured: ♂♂/trap/night ± SEM” value (codling moth [3]) is reported as 1.12 ± 0.39 ♀♀/trap/night, the “MALE CM Captured: ♂♂/trap/night ± SEM” value (codling moth [3]) is reported as 0.49 ± 0.14 ♂♂/trap/night and the “Total CM Captured: CM/trap/night ± SEM” value (codling moth [3]) is reported as 1.61 ± 0.49 CM/trap/night.
